ChEMBL document CHEMBL6092149, “Discovery of 1(2H)-phthalazinone and 1(2H)-isoquinolinone derivatives as potent hematopoietic progenitor kinase 1 (HPK1) inhibitors” (Eur J Med Chem, 2024)

How the values were obtained:
[1] = molecular target: T1, Mitogen-activated protein kinase kinase kinase kinase 1 (Homo sapiens, UniProt Q92918); assay: Inhibition of N-terminal DYKDDDDK recombinant human HPK1 (1 to 346 residues) expressed in Sf21 insect cells preincubated for 10 min followed by fluorescein PKC and ATP addition and measured after 90 min by Envision2104 Multilabel Reader analysis
Target sequence in this assay (Q92918 whole entry, the tested form may be a part): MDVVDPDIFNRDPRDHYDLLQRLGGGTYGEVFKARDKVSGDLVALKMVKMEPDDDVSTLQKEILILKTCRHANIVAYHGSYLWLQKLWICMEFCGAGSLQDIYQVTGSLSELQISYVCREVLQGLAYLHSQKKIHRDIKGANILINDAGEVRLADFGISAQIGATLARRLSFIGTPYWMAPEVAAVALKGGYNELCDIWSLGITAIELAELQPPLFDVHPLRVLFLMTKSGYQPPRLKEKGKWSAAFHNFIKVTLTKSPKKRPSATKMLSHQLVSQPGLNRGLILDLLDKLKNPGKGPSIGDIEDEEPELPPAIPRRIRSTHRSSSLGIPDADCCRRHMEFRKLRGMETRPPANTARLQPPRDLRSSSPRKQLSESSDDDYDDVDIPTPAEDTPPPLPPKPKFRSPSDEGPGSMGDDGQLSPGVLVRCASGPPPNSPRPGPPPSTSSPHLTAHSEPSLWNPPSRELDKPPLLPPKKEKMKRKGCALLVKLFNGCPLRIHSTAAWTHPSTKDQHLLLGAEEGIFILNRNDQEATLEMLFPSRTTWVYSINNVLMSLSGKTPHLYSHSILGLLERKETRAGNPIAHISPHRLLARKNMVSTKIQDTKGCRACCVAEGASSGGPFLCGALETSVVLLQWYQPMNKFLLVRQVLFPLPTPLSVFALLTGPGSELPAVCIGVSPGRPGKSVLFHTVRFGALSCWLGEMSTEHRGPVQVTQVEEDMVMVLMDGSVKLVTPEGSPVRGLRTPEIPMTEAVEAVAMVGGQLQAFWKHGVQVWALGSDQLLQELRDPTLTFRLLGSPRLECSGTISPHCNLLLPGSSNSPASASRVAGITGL

[2] = molecular target: T1, Mitogen-activated protein kinase kinase kinase kinase 1; assay: Inhibition of HPK1 in human Jurkat cells assessed as reduction in SLP76 phosphorylation pretreated for 1 hr followed by anti-CD3 addition and measured after 15 min by ELISA method; format: cell-based
Target sequence in this assay (Q92918 whole entry, the tested form may be a part): as above

[3] = molecular target: T1, Mitogen-activated protein kinase kinase kinase kinase 1; assay: Inhibition of HPK1 in human T cells assessed as increase in IL-2 secretion measured after 24 hrs by ELISA method; format: cell-based, T-cell; conditions: for Activity: T-cell
[4] = Half life in overnight fasted mouse at 1 mg/kg, iv; format: ADME, organism-based; conditions: in vivo
[5] = Plasma clearance in overnight fasted mouse at 1 mg/kg, iv; format: ADME, organism-based
[6] = AUC (0 to 24 hrs) in overnight fasted mouse at 10 mg/kg, po; format: ADME, organism-based; conditions: in vivo
[7] = Oral bioavailability in in overnight fasted mouse at 10 mg/kg; format: ADME, organism-based; conditions: in vivo
[8] = Cmax in overnight fasted mouse at 10 mg/kg, po; format: ADME, organism-based; conditions: in vivo
[9] = Half life in overnight fasted rat at 1 mg/kg, iv; format: ADME, organism-based; conditions: in vivo
[10] = Plasma Clearance in overnight fasted rat at 1 mg/kg, iv; format: ADME, organism-based
[11] = Cmax in overnight fasted rat at 10 mg/kg, po; format: ADME, organism-based; conditions: in vivo
[12] = AUC (0 to 24 hrs) in overnight fasted rat at 10 mg/kg, po; format: ADME, organism-based; conditions: in vivo
[13] = Oral bioavailability in in overnight fasted rat at 10 mg/kg; format: ADME, organism-based; conditions: in vivo
[14] = molecular target: Mitogen-activated protein kinase kinase kinase kinase 2 (Homo sapiens, UniProt Q12851); assay: Inhibition of N-terminal GST tagged recombinant human MAP4K2 (1 to 820 residues) expressed in Sf21 insect cells preincubated for 10 min followed by fluorescein PKC and ATP addition and measured after 90 min by Envision2104 Multilabel Reader analysis
[15] = molecular target: Mitogen-activated protein kinase kinase kinase kinase 3 (Homo sapiens, UniProt Q8IVH8); assay: Inhibition of GST-tagged recombinant human MAP4K3 (1 to 380 residues) extracted from Baculovirus infected Sf9 insect cells preincubated for 10 min followed by fluorescein PKC and ATP addition and measured after 90 min by Envision2104 Multilabel Reader analysis
[16] = molecular target: Mitogen-activated protein kinase kinase kinase kinase 4 (Homo sapiens, UniProt O95819); assay: Inhibition of N-terminal GST-tagged recombinant human MAP4K4 (1 to 328 residues) expressed in Sf21 insect cells preincubated for 10 min followed by fluorescein PKC and ATP addition and measured after 90 min by Envision2104 Multilabel Reader analysis
[17] = molecular target: Mitogen-activated protein kinase kinase kinase kinase 5 (Homo sapiens, UniProt Q9Y4K4); assay: Inhibition of GST-tagged recombinant human full length MAP4K5 expressed in insect cells preincubated for 10 min followed by fluorescein PKC and ATP addition and measured after 90 min by Envision2104 Multilabel Reader analysis; parameters: species or system Insect cell
Misshapen-like kinase 1 = Misshapen-like kinase 1 (Homo sapiens, UniProt Q8N4C8); assay: Inhibition of N-terminal GST-tagged recombinant human MAP4K6 (7 to 139 residues) expressed in Sf21 insect cells preincubated for 10 min followed by fluorescein PKC and ATP addition and measured after 90 min by Envision2104 Multilabel Reader analysis
[18] = molecular target: Mitogen-activated protein kinase 3 (Homo sapiens) (UniProt P27361); assay: Inhibition of ERK1 (unknown origin) at 1000 nM incubated for 1 hrs by active site-directed competition binding assay relative to control
[19] = molecular target: Mitogen-activated protein kinase 1 (Homo sapiens) (UniProt P28482); assay: Inhibition of ERK2 (unknown origin) at 1000 nM incubated for 1 hrs by active site-directed competition binding assay relative to control
[20] = molecular target: Inhibitor of nuclear factor kappa-B kinase subunit beta (Homo sapiens) (UniProt O14920); assay: Inhibition of IKKbeta (unknown origin) at 1000 nM incubated for 1 hrs by active site-directed competition binding assay relative to control
[21] = molecular target: Tyrosine-protein kinase ITK/TSK (Homo sapiens) (UniProt Q08881); assay: Inhibition of ITK (unknown origin) at 1000 nM incubated for 1 hrs by active site-directed competition binding assay relative to control
[22] = molecular target: Mitogen-activated protein kinase 8 (Homo sapiens) (UniProt P45983); assay: Inhibition of JNK1 (unknown origin) at 1000 nM incubated for 1 hrs by active site-directed competition binding assay relative to control
[23] = molecular target: Mitogen-activated protein kinase 9 (Homo sapiens) (UniProt P45984); assay: Inhibition of JNK2 (unknown origin) at 1000 nM incubated for 1 hrs by active site-directed competition binding assay relative to control
[24] = molecular target: Mitogen-activated protein kinase 14 (Homo sapiens) (UniProt Q16539); assay: Inhibition of P38alpha (unknown origin) at 1000 nM incubated for 1 hrs by active site-directed competition binding assay relative to control
[25] = molecular target: Mitogen-activated protein kinase 11 (Homo sapiens) (UniProt Q15759); assay: Inhibition of P38beta (unknown origin) at 1000 nM incubated for 1 hrs by active site-directed competition binding assay relative to control
[26] = molecular target: Mitogen-activated protein kinase 12 (Homo sapiens) (UniProt P53778); assay: Inhibition of P38gamma (unknown origin) at 1000 nM incubated for 1 hrs by active site-directed competition binding assay relative to control
[27] = molecular target: Mitogen-activated protein kinase 13 (Homo sapiens) (UniProt O15264); assay: Inhibition of P38delta (unknown origin) at 1000 nM incubated for 1 hrs by active site-directed competition binding assay relative to control
[28] = molecular target: RAF proto-oncogene serine/threonine-protein kinase (Homo sapiens) (UniProt P04049); assay: Inhibition of RAF1 (unknown origin) at 1000 nM incubated for 1 hrs by active site-directed competition binding assay relative to control
Homo sapiens = species: Homo sapiens; assay: Inhibition of TAK1 (unknown origin) at 1000 nM incubated for 1 hrs by active site-directed competition binding assay relative to control
[29] = molecular target: Tyrosine-protein kinase ZAP-70 (Homo sapiens) (UniProt P43403); assay: Inhibition of ZAP70 (unknown origin) at 1000 nM incubated for 1 hrs by active site-directed competition binding assay relative to control
[30] = Inhibition of N-terminal His-tagged recombinant human TAK1(1 to 303 residues) expressed in Sf21 insect cells preincubated for 10 min followed by inactive MEK1 and ATP addition and measured after 90 min by Envision2104 Multilabel Reader analysis
[31] = molecular target: Mitogen-activated protein kinase kinase kinase kinase 1 (Mus musculus) (UniProt P70218); assay: In vivo inhibition of HPK1 in female BALB/c mouse assessed as reduction in SLP76 phosphorylation in spleen at 100 mg/kg qd, ip and measured after 3 hrs post dosing by Western blot analysis relative to control; format: functional, organism-based
[32] = molecular target: Mitogen-activated protein kinase kinase kinase kinase 1 (Mus musculus) (UniProt P70218); assay: In vivo inhibition of HPK1 in female BALB/c mouse assessed as reduction in SLP76 phosphorylation in spleen at 100 mg/kg qd, ip and measured after 24 hrs post dosing by Western blot analysis relative to control; format: functional, organism-based
CT26 [33] = assay: Antitumor activity against mouse CT26 cells allografted in female BALB/c mouse assessed as tumor growth inhibition at 30 mg/kg, administered orally twice daily for 2 weeks; format: functional; conditions: CT26, 336 h, route po, read-out: TGI
CT26 [34] = assay: Antitumor activity against mouse CT26 cells allografted in female BALB/c mouse assessed as tumor growth inhibition at 3 mg/kg, ip administered twice daily and measured on 13 day in presence of presence of anti-PD-1 relative to control; format: functional; conditions: CT26, 312 h, read-out: TGI
[35] = Toxicity against BALB/c mouse allografted with mouse CT26 cells assessed as body weight loss at 30 mg/kg, administered orally twice daily for 2 weeks; format: organism-based; conditions: in vivo, po, 336 h
[36] = Toxicity against BALB/c mouse […] with mouse CT26 cells assessed as body weight loss at 3 mg/kg, ip administered twice daily and measured on 13 day in presence of presence of anti-PD-1; format: organism-based; conditions: in vivo, 312 h
[37] = Toxicity in CD-1 mouse assessed as body weight loss at 300 mg/kg, po; format: organism-based; conditions: in vivo
[38] = Toxicity in CD-1 mouse assessed as body weight loss at 1000 mg/kg, po; format: organism-based; conditions: in vivo
[39] = molecular target: T1, Mitogen-activated protein kinase kinase kinase kinase 1; assay: Inhibition of human HPK1 at 1000 nM incubated for 1 hrs by active site-directed competition binding assay relative to control; values are per cent of control
Target sequence in this assay (Q92918 whole entry, looked up, the tested form may be a part): as the sequence (Q92918 whole entry, the tested form may be a part) above

[40] = molecular target: Tyrosine-protein kinase Lck (Homo sapiens) (UniProt P06239); assay: Inhibition of LCK (unknown origin) at 1000 nM incubated for 1 hrs by active site-directed competition binding assay relative to control; values are per cent of control
[41] = molecular target: RAC-beta serine/threonine-protein kinase (Homo sapiens) (UniProt P31751); assay: Inhibition of AKT2 (unknown origin) at 1000 nM incubated for 1 hrs by active site-directed competition binding assay relative to control; values are per cent of control
[42] = molecular target: RAC-gamma serine/threonine-protein kinase (Homo sapiens) (UniProt Q9Y243); assay: Inhibition of AKT3 (unknown origin) at 1000 nM incubated for 1 hrs by active site-directed competition binding assay relative to control; values are per cent of control
[43] = molecular target: Calcium/calmodulin-dependent protein kinase type IV (Homo sapiens) (UniProt Q16566); assay: Inhibition of CAMK4 (unknown origin) at 1000 nM incubated for 1 hrs by active site-directed competition binding assay relative to control; values are per cent of control
[44] = molecular target: Mitogen-activated protein kinase kinase kinase 1 (Homo sapiens) (UniProt Q13233); assay: Inhibition of MAP3K1 (unknown origin) at 1000 nM incubated for 1 hrs by active site-directed competition binding assay relative to control; values are per cent of control

Sequence of Mitogen-activated protein kinase kinase kinase kinase 1 (Mus musculus) (P70218 whole entry): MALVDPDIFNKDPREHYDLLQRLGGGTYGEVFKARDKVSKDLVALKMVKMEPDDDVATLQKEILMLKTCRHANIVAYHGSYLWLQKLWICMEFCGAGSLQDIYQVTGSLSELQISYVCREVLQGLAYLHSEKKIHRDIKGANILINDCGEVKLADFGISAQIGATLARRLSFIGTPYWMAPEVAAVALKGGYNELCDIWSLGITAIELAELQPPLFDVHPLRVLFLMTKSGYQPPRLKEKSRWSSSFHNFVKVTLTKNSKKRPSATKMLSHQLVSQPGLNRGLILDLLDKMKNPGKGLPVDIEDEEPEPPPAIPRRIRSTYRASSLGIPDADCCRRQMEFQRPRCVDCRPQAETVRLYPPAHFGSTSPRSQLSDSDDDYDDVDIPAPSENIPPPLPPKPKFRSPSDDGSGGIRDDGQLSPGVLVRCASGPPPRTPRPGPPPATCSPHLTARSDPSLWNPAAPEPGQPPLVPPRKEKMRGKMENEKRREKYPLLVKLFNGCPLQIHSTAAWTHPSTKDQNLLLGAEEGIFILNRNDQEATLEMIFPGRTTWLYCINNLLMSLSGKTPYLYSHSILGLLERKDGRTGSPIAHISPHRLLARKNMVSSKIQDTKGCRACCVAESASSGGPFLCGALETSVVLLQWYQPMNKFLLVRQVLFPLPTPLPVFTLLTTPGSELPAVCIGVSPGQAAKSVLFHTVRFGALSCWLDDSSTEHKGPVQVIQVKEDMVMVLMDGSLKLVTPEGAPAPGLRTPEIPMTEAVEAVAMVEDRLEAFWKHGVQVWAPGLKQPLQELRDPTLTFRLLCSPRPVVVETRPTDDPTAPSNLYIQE
Sequence of Mitogen-activated protein kinase 8 (Homo sapiens) (P45983 whole entry): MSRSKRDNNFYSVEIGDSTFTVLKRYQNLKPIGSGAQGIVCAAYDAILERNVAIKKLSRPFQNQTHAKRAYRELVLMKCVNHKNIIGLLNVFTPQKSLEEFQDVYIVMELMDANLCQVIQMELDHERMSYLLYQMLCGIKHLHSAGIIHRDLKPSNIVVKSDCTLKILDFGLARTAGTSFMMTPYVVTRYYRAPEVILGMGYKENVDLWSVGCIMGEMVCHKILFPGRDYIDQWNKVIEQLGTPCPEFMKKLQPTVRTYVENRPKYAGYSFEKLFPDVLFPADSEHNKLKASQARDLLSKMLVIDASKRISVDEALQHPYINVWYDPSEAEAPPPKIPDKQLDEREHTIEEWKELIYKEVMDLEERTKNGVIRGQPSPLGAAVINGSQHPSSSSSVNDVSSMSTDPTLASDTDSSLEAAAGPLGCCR
Sequence of Tyrosine-protein kinase Lck (Homo sapiens) (P06239 2-509 limits assumed): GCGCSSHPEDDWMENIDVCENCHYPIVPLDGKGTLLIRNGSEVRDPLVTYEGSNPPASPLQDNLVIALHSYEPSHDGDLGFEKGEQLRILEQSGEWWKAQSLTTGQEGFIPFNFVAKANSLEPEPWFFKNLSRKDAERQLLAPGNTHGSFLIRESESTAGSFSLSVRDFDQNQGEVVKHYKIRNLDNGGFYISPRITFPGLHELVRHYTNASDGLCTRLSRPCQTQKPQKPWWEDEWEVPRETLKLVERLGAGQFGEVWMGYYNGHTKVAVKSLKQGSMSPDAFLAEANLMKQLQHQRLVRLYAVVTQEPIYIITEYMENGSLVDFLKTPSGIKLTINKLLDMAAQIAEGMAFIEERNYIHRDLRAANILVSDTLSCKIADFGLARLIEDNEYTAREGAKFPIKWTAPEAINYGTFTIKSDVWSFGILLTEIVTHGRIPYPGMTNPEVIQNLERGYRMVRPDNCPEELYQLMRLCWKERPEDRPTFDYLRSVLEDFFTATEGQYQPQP
Sequence of RAF proto-oncogene serine/threonine-protein kinase (Homo sapiens) (P04049 whole entry): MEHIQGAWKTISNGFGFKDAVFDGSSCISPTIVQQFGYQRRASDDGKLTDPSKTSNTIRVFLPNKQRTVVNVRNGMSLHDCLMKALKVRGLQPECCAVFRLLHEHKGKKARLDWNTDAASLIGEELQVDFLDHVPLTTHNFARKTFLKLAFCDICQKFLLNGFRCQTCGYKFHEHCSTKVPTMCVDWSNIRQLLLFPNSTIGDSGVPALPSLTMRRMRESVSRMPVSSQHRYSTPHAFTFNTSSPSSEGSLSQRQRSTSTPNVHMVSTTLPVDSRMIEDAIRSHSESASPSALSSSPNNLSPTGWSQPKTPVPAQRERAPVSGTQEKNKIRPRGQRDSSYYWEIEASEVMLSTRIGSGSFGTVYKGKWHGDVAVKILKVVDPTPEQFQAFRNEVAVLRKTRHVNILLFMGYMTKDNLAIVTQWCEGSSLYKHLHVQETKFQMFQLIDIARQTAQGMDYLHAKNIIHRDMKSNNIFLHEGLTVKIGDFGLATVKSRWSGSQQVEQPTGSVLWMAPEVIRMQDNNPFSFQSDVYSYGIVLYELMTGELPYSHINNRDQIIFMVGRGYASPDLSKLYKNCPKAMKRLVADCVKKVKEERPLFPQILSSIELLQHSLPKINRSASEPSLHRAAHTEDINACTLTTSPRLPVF
Sequence of Mitogen-activated protein kinase 9 (Homo sapiens) (P45984 whole entry, looked up): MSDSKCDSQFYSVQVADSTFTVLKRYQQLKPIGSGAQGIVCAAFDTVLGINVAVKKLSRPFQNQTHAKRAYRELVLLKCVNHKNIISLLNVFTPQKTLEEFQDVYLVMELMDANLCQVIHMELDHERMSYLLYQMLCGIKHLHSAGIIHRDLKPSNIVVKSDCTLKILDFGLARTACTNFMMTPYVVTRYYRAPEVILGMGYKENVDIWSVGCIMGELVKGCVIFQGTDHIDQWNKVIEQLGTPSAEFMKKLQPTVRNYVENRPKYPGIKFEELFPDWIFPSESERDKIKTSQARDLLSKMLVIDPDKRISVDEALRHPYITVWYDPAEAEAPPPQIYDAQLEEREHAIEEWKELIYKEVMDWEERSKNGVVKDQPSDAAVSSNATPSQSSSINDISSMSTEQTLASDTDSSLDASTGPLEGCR
Sequence of Calcium/calmodulin-dependent protein kinase type IV (Homo sapiens) (Q16566 whole entry): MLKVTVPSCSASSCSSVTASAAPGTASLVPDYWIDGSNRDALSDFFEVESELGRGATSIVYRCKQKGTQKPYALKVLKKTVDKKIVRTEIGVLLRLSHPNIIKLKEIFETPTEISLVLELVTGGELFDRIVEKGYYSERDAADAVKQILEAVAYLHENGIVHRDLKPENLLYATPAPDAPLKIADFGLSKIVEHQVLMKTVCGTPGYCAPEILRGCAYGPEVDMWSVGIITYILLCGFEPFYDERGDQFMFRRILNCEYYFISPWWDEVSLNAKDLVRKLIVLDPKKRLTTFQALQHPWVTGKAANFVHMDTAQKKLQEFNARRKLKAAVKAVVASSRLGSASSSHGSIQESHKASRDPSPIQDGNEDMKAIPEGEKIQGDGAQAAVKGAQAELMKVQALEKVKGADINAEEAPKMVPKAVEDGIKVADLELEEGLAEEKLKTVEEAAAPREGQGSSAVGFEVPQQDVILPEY

CN(C)Cc1nc(Nc2ccc(-c3cnc4cc(F)ccn34)c3cn[nH]c(=O)c23)ccc1C1CCOCC1
IC50 [1]: 6.9 nM | EC50 [2]: 19.2 nM | EC50 [3]: 123 nM | Activity [3]: Dose-dependent-effect | half-life [4]: 12 min | clearance [5]: 263 mL/min/kg | AUC(0-t) [6]: 477 ng·h/mL | bioavailability [7]: 77% | Cmax [8]: 725 ng/mL

CN(C)Cc1nc(Nc2ccc(-c3cnc4cc(F)ccn34)c3c2C(=O)NCC3)ccc1C1CCOCC1
IC50 [1]: 525 nM

Cc1cc2c(-c3cnc4cc(F)ccn34)ccc(Nc3ccc(C4CCOCC4)c(CN(C)C)n3)c2c(=O)[nH]1
IC50 [1]: > 1000 nM

O=c1[nH]ncc2c(-c3cnc4cc(F)ccn34)ccc(Nc3ccc(C4CCOCC4)c(CN4CCC(O)C4)n3)c12 (configuration not stated)
IC50 [1]: 39.1 nM | EC50 [3]: 223 nM | Activity [3]: Dose-dependent-effect

O=c1[nH]ccc2c(-c3cnc4cc(F)ccn34)ccc(Nc3ccc(C4CCOCC4)c(CN4CC[C@H](F)C4)n3)c12
IC50 [1]: 10.4 nM | EC50 [2]: 41 nM | EC50 [3]: 108 nM | Activity [3]: Dose-dependent-effect | half-life [4]: 36 min | clearance [5]: 46 mL/min/kg | AUC(0-t) [6]: 4140 ng·h/mL | bioavailability [7]: 116% | half-life [9]: 48 min | clearance [10]: 67 mL/min/kg | Cmax [11]: 518 ng/mL | AUC(0-t) [12]: 2010 ng·h/mL | bioavailability [13]: 80% | Cmax [8]: 1800 ng/mL | IC50 [14]: 448 nM | IC50 [15]: 85 nM | IC50 [16]: 665 nM | IC50 [17]: 104 nM | IC50 (Misshapen-like kinase 1): 168 nM | inhibition [18]: 56% | inhibition [19]: 69% | inhibition [20]: 93% | inhibition [21]: 94% | inhibition [22]: 96% | inhibition [23]: 86% | inhibition [24]: 94% | inhibition [25]: 84% | inhibition [26]: 36% | inhibition [27]: 62% | inhibition [28]: 85% | inhibition (Homo sapiens): 1.5% | inhibition [29]: 90% | IC50 [30]: 4740 nM | inhibition [31]: 100% | inhibition [32]: 50% | inhibition in vivo at 30 mg/kg (CT26 [33]): 42% | inhibition in vivo at 3 mg/kg (CT26 [34]): 95% | Activity [35]: Non-toxic | Activity [36]: Non-toxic | Activity [37]: Non-toxic | Activity [38]: Non-toxic | percent of control [39]: 0.6% | percent of control [40]: 100% | percent of control [41]: 100% | percent of control [42]: 100% | percent of control [43]: 100% | percent of control [44]: 100%

O=C(NCc1nc(Nc2ccc(-c3cnc4cc(F)ccn34)c3cn[nH]c(=O)c23)ccc1C1CCOCC1)NC1CC1
IC50 [1]: > 1000 nM
